These results are taken from patent US20150132404A1, “Equine feed for the reduction of ulcers in performance horses” (priority 2013, published 2015).

In this experiment the test system is horses. Nature of the experiment: Observation of horses fed the feed supplement mixture (testing of the product). Type of experiment: in vivo, horse. The source says: A dry horse feed supplement for the prevention and treatment of ulcers in horses, especially those involved in performance activities, provides a feed supplement mixture comprising a quantity of forage or filler product; a quantity of grain product, a quantity of protein product, a quantity of roughage product, essential vitamins and trace minerals, a yeast product, fat, molasses, a measured quantity of thiamine (Vitamin B1) and a measured quantity of sodium bicarbonate. The feed supplement mixture is fed to a horse based upon the total weight of the horse, in an amount between 0.50-1.50% of the body weight, depending upon the level of work and activity stress of the horse.
The feed composition ingredients, delivered in the parameters set above with regard to content quantity by percentage includes the ingredients list, in order of most ingredient quantity to least ingredients quantity, provides the feed containing no less than 14% crude protein, 6.5% crude fat, a no more than 22% crude fiber, no less than 0.6% and no more than 1% calcium, no less than 0.3% phosphorus, as well as quantities of zinc, copper, selenium, Vitamin A and Vitamin E. There are special blends suited for older performance horses and other blends for various younger performance horses. […]

`Cc1ncc(C[n+]2csc(CCO)c2C)c(N)n1` [thiamine]: for the setting “fed in the feed supplement mixture at 0.5-1.5% of body weight”, the “effect on demeanor / stress level of the horse” value is given as “calming effect on horses”.
On to `O=C([O-])O.[Na+]` [sodium bicarbonate], for which the “pH level in the digestive tract” value (sodium bicarbonate at the recommended levels in the feed) is “acts as a buffer and maintains an optimal ph level in the digestive tract”.
